Legend:
[1] = molecular target: T1, kinases of the scanMAX Kinase assay panel (Homo sapiens, UniProt O75747); assay: Kinase selectivity, DiscoverX scanMAX Kinase assay panel (% control); assay type: binding; conditions: PIK3C2G; 1 uM
T1 construct: purchased DiscoverX Co. (contract measurement) scanMAX Kinase assay panel
T1 sequence (O75747 1-1486): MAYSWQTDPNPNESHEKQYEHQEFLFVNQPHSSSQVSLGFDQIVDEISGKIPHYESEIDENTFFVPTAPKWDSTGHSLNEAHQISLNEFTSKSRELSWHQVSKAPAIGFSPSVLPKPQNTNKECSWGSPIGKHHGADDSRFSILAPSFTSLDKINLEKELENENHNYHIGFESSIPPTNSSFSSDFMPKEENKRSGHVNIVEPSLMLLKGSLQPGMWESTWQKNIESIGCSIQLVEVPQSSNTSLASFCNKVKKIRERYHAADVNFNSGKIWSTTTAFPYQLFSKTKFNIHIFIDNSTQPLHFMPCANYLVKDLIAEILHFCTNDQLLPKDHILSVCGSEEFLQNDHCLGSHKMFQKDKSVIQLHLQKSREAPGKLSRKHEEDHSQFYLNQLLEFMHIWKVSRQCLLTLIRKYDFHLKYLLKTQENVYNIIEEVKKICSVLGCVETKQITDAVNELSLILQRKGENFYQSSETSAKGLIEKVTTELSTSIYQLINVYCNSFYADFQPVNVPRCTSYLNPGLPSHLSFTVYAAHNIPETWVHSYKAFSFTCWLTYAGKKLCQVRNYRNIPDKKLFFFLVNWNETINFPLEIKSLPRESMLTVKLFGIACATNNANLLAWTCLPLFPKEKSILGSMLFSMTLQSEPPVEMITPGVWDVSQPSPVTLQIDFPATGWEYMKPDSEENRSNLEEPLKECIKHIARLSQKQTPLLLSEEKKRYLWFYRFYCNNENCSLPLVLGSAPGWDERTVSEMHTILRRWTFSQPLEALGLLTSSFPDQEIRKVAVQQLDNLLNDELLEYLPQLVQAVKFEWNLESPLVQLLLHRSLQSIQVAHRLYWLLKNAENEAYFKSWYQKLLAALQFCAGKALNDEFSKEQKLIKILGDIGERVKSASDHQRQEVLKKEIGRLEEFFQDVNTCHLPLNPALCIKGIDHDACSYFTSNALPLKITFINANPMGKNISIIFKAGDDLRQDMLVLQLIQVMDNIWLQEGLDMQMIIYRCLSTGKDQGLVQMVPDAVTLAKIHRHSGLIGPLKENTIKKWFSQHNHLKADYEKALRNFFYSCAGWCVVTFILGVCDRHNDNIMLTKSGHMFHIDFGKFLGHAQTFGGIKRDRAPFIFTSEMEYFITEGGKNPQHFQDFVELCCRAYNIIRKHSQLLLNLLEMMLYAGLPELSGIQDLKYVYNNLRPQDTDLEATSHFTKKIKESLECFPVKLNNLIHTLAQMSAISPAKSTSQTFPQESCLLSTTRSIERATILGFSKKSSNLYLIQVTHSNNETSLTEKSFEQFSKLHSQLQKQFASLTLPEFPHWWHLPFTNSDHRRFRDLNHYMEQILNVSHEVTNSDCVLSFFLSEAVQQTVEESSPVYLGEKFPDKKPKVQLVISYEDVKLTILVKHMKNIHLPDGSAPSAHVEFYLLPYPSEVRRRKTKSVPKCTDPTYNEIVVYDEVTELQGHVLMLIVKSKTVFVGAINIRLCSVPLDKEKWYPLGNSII
Method in brief: (§1)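 Single-point screen, 1 uM cpd in DMSO. % ctrl = (cpd − pos ctrl)/(neg ctrl − pos ctrl)×100; pos ctrl = 0%, DMSO neg ctrl = 100%. Hit cutoff <35%.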

[2] = molecular target: T2, kinases of the scanMAX Kinase assay panel (Homo sapiens, UniProt Q9Y616); assay: as above; assay type: binding; conditions: IRAK3; 1 uM
T2 construct: purchased DiscoverX Co. (contract measurement) scanMAX Kinase assay panel
T2 sequence (Q9Y616 1-596): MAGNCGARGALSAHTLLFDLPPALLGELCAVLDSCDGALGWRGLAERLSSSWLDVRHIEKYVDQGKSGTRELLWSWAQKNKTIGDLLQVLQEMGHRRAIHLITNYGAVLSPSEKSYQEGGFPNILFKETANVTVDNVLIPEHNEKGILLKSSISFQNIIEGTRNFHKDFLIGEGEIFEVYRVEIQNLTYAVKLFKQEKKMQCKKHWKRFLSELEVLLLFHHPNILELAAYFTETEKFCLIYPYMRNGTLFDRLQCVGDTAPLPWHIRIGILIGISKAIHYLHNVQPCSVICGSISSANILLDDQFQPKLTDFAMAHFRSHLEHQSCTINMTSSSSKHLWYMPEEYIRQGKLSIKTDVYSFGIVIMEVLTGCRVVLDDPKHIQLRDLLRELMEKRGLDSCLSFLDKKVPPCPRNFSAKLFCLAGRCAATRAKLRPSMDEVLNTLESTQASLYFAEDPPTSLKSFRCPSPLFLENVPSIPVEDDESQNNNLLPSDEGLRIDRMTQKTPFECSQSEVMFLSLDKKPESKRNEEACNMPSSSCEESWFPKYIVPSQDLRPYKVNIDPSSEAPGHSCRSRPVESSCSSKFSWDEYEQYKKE
Method in brief: as §1

SMILES	remaining binding at 1 µM [1] [%]	remaining binding at 1 µM [2] [%]
CNc1nc(Nc2ccc(C(=O)N3CCOCC3)cc2OC)nc2[nH]cc(C#N)c12 [Example 1, 2-((2-methoxy-4-(morpholine-4-carbonyl)phenyl)amino)-4-(methylamino)-7H-pyrrolo[2,3-d]pyrimidine-5-carbonitrile]	99	90
CC1(Nc2nc(Nc3cnn([C@H]4CCN(C5COC5)C[C@@H]4F)c3Cl)nc3[nH]cc(C#N)c23)CC1 [Example 52, 2-((5-chloro-1-((3S,4S)-3-fluoro-1-(oxetane-3-yl)piperidine-4-yl)-1H-pyrazole-4-yl)amino)((1-methylcyclopropyl)amino)-7H-pyrrolo[2,3-d]pyrimidine-5-carbonitrile]	72	3.9
CCNc1nc(Nc2ccc(C(=O)N3CCC(N4CCOCC4)CC3)cc2OC)nc2[nH]cc(C(F)(F)F)c12 [Example 104, (4-((4-(ethylamino)-5-(trifluoromethyl)-7H-pyrrolo[2,3-d]pyrimidine-2-yl)amino)-3-methoxyphenyl)(4-morpholinopiperidine-1-yl)methanone]	86	26
